Test system: HCT116 colorectal cancer cells
Assay: Cisplatin sensitization assay (96 h cell viability MTS);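 also: compound concentration needed to lower the Cisplatin-alone IC50 by a set fold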
Assay type: cell-based
Settings: 96 h MTS, compound plus Cisplatin
How it was run: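 Viability was measured by MTS after 96 h co-exposure of HCT116 colorectal cells to a full-matrix dilution grid of compound and cisplatin (2-fold steps, highest final concentration 10 μM, added together). Plates were kept at 37 °C in 5% CO2, and the MTS reagent was incubated for 1 h before reading.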

In the case of `Nc1nn2cc(F)cnc2c1C(=O)Nc1cncc(F)c1N1CCC(C(=O)N2CCN3CCC2C3)CC1` (centres unmarked) [I-G-46, N-(4-(4-(1,4-diazabicyclo[3.2.1]octane-4-carbonyl)piperidin-1-yl)-5-fluoropyridin-3-yl)-2-amino-6-fluoropyrazolo[1,5-a]pyrimidine-3-carboxamide], the “Cisplatin Sensitization Assay” value is reported as “+++ (Compounds with a Cisplatin sensitization value of <0.02 μM are marked with “+++.”)”.

For `C[C@H]1CN(C(=O)C2CCN(c3c(F)cncc3NC(=O)c3c(N)nn4cc(F)cnc34)CC2)CCN1C` [I-G-47, (S)-2-amino-N-(4-(4-(3,4-dimethylpiperazine-1-carbonyl)piperidin-1-yl)-5-fluoropyridin-3-yl)-6-fluoropyrazolo[1,5-a]pyrimidine-3-carboxamide], the “Cisplatin Sensitization Assay” value was “+++ (Compounds with a Cisplatin sensitization value of <0.02 μM are marked with “+++.”)”.

For `Nc1nn2cc(F)cnc2c1C(=O)Nc1cncc(Cl)c1N1CCC(C(=O)N2CCNCC2)CC1` [I-G-48, 2-amino-N-(5-chloro-4-(4-(piperazine-1-carbonyl)piperidin-1-yl)pyridin-3-yl)-6-fluoropyrazolo[1,5-a]pyrimidine-3-carboxamide], the “Cisplatin Sensitization Assay” value was “+++ (Compounds with a Cisplatin sensitization value of <0.02 μM are marked with “+++.”)”.

In the case of `Nc1nn2cc(F)cnc2c1C(=O)Nc1cncc(F)c1N1CCC(C(=O)N2CC(N3CCC3)C2)CC1` [I-G-49, N-(4-(4-([1,3′-biazetidine]-1′-carbonyl)piperidin-1-yl)-5-fluoropyridin-3-yl)-2-amino-6-fluoropyrazolo[1,5-a]pyrimidine-3-carboxamide], the “Cisplatin Sensitization Assay” value is reported as “+++ (Compounds with a Cisplatin sensitization value of <0.02 μM are marked with “+++.”)”.

In the case of `C[C@@H]1CN(C(=O)C2CCN(c3c(F)cncc3NC(=O)c3c(N)nn4cc(F)cnc34)CC2)CCN1C` [I-G-50, (R)-2-amino-N-(4-(4-(3,4-dimethylpiperazine-1-carbonyl)piperidin-1-yl)-5-fluoropyridin-3-yl)-6-fluoropyrazolo[1,5-a]pyrimidine-3-carboxamide], the “Cisplatin Sensitization Assay” value is reported as “+++ (Compounds with a Cisplatin sensitization value of <0.02 μM are marked with “+++.”)”.

In the case of `Nc1nn2cc(F)cnc2c1C(=O)Nc1cncc(F)c1N1CCC(C(=O)N2CC3CNCC3C2)CC1` (centres unmarked) [I-G-51, 2-amino-6-fluoro-N-(5-fluoro-4-(4-(octahydropyrrolo[3,4-c]pyrrole-2-carbonyl)piperidin-1-yl)pyridin-3-yl)pyrazolo[1,5-a]pyrimidine-3-carboxamide], the “Cisplatin Sensitization Assay” value is reported as “+++ (Compounds with a Cisplatin sensitization value of <0.02 μM are marked with “+++.”)”.

With `CN1C2CCC1CN(C(=O)C1CCN(c3c(F)cncc3NC(=O)c3c(N)nn4cc(F)cnc34)CC1)C2` [I-G-52, 2-amino-6-fluoro-N-(5-fluoro-4-(4-(8-methyl-3,8-diazabicyclo[3.2.1]octane-3-carbonyl)piperidin-1-yl)pyridin-3-yl)pyrazolo[1,5-a]pyrimidine-3-carboxamide] the “Cisplatin Sensitization Assay” value was “+++ (Compounds with a Cisplatin sensitization value of <0.02 μM are marked with “+++.”)”.

In the case of `CN1CC2CC1CN2C(=O)C1CCN(c2c(F)cncc2NC(=O)c2c(N)nn3cc(F)cnc23)CC1` (centres unmarked) [I-G-53, 2-amino-6-fluoro-N-(5-fluoro-4-(4-(5-methyl-2,5-diazabicyclo[2.2.1]heptane-2-carbonyl)piperidin-1-yl)pyridin-3-yl)pyrazolo[1,5-a]pyrimidine-3-carboxamide], the “Cisplatin Sensitization Assay” value is reported as “+++ (Compounds with a Cisplatin sensitization value of <0.02 μM are marked with “+++.”)”.

In the case of `CN1CCN(C(=O)C2(C)CCN(c3c(F)cncc3NC(=O)c3c(N)nn4cc(F)cnc34)CC2)CC1` [I-G-54, 2-amino-6-fluoro-N-(5-fluoro-4-(4-methyl-4-(4-methylpiperazine-1-carbonyl)piperidin-1-yl)pyridin-3-yl)pyrazolo[1,5-a]pyrimidine-3-carboxamide], the “Cisplatin Sensitization Assay” value is reported as “+++ (Compounds with a Cisplatin sensitization value of <0.02 μM are marked with “+++.”)”.

With `Cc1cncc(NC(=O)c2c(N)nn3cc(F)cnc23)c1N1CCC(C(=O)N2CCN(C)CC2)CC1` [I-G-55, 2-amino-6-fluoro-N-(5-methyl-4-(4-(4-methylpiperazine-1-carbonyl)piperidin-1-yl)pyridin-3-yl)pyrazolo[1,5-a]pyrimidine-3-carboxamide] the “Cisplatin Sensitization Assay” value was “+++ (Compounds with a Cisplatin sensitization value of <0.02 μM are marked with “+++.”)”.

`Cc1cncc(NC(=O)c2c(N)nn3cc(F)cnc23)c1N1CCC(C(=O)N2CCNCC2)CC1` [I-G-56, 2-amino-6-fluoro-N-(5-methyl-4-(4-(piperazine-1-carbonyl)piperidin-1-yl)pyridin-3-yl)pyrazolo[1,5-a]pyrimidine-3-carboxamide] was tested, and the “Cisplatin Sensitization Assay” value was “+++ (Compounds with a Cisplatin sensitization value of <0.02 μM are marked with “+++.”)”.

In the case of `Nc1nn2cc(F)cnc2c1C(=O)Nc1cncc(F)c1N1CCC(C(=O)N2CC(N3CCCCC3)C2)CC1` [I-G-57, 2-amino-6-fluoro-N-(5-fluoro-4-(4-(3-(piperidin-1-yl)azetidine-1-carbonyl)piperidin-1-yl)pyridin-3-yl)pyrazolo[1,5-a]pyrimidine-3-carboxamide], the “Cisplatin Sensitization Assay” value is reported as “+++ (Compounds with a Cisplatin sensitization value of <0.02 μM are marked with “+++.”)”.

`Nc1nn2cc(F)cnc2c1C(=O)Nc1cncc(F)c1N1CCC(C(=O)N2CC[C@H](N3CCCC3)C2)CC1` [I-G-58, (S)—N-(4-(4-([1,3′-bipyrrolidine]-1′-carbonyl)piperidin-1-yl)-5-fluoropyridin-3-yl)-2-amino-6-fluoropyrazolo[1,5-a]pyrimidine-3-carboxamide] was tested, and the “Cisplatin Sensitization Assay” value was “+++ (Compounds with a Cisplatin sensitization value of <0.02 μM are marked with “+++.”)”.

`Nc1nn2cc(F)cnc2c1C(=O)Nc1cncc(F)c1N1CCC(C(=O)N2CCC(N3CCCC3)CC2)CC1` [I-G-59, 2-amino-6-fluoro-N-(5-fluoro-4-(4-(4-(pyrrolidin-1-yl)piperidine-1-carbonyl)piperidin-1-yl)pyridin-3-yl)pyrazolo[1,5-a]pyrimidine-3-carboxamide] was tested, and the “Cisplatin Sensitization Assay” value was “+++ (Compounds with a Cisplatin sensitization value of <0.02 μM are marked with “+++.”)”.

`Nc1nn2cc(F)cnc2c1C(=O)Nc1cncc(F)c1N1CCC(C(=O)N2CCC(N3CCCCC3)CC2)CC1` [I-G-60, N-(4-(4-([1,4′-bipiperidine]-1′-carbonyl)piperidin-1-yl)-5-fluoropyridin-3-yl)-2-amino-6-fluoropyrazolo[1,5-a]pyrimidine-3-carboxamide] was tested, and the “Cisplatin Sensitization Assay” value was “+++ (Compounds with a Cisplatin sensitization value of <0.02 μM are marked with “+++.”)”.

With `Nc1nn2cc(F)cnc2c1C(=O)Nc1cncc(F)c1N1CCC(C(=O)N2CCNC3CC32)CC1` (centres unmarked) [I-G-62, N-(4-(4-(2,5-diazabicyclo[4.1.0]heptane-2-carbonyl)piperidin-1-yl)-5-fluoropyridin-3-yl)-2-amino-6-fluoropyrazolo[1,5-a]pyrimidine-3-carboxamide] the “Cisplatin Sensitization Assay” value was “+++ (Compounds with a Cisplatin sensitization value of <0.02 μM are marked with “+++.”)”.

In the case of `CC1(O)CN(C(=O)C2CCN(c3c(F)cncc3NC(=O)c3c(N)nn4cc(F)cnc34)CC2)C1` [I-G-63, 2-amino-6-fluoro-N-(5-fluoro-4-(4-(3-hydroxy-3-methylazetidine-1-carbonyl)piperidin-1-yl)pyridin-3-yl)pyrazolo[1,5-a]pyrimidine-3-carboxamide], the “Cisplatin Sensitization Assay” value is reported as “+++ (Compounds with a Cisplatin sensitization value of <0.02 μM are marked with “+++.”)”.

With `Nc1nn2cc(F)cnc2c1C(=O)Nc1cncc(F)c1N1CCC(C(=O)N2CCC(N3CCCCC3)C2)CC1` (centres unmarked) [I-G-64, 2-amino-6-fluoro-N-(5-fluoro-4-(4-(3-(piperidin-1-yl)pyrrolidine-1-carbonyl)piperidin-1-yl)pyridin-3-yl)pyrazolo[1,5-a]pyrimidine-3-carboxamide] the “Cisplatin Sensitization Assay” value was “+++ (Compounds with a Cisplatin sensitization value of <0.02 μM are marked with “+++.”)”.

In the case of `CN1CCN(C(=O)C2CCN(c3c(F)cncc3NC(=O)c3c(N)nn4cc(F)cnc34)CC2)C2CC21` (centres unmarked) [I-G-65, 2-amino-6-fluoro-N-(5-fluoro-4-(4-(5-methyl-2,5-diazabicyclo[4.1.0]heptane-2-carbonyl)piperidin-1-yl)pyridin-3-yl)pyrazolo[1,5-a]pyrimidine-3-carboxamide], the “Cisplatin Sensitization Assay” value is reported as “+++ (Compounds with a Cisplatin sensitization value of <0.02 μM are marked with “+++.”)”.

`Nc1nn2cc(F)cnc2c1C(=O)Nc1cncc(Cl)c1N1CCC(C(=O)N2CCN3CCC2CC3)CC1` [I-G-66, N-(4-(4-(1,4-diazabicyclo[3.2.2]nonane-4-carbonyl)piperidin-1-yl)-5-chloropyridin-3-yl)-2-amino-6-fluoropyrazolo[1,5-a]pyrimidine-3-carboxamide] was tested, and the “Cisplatin Sensitization Assay” value was “+++ (Compounds with a Cisplatin sensitization value of <0.02 μM are marked with “+++.”)”.

With `Nc1nn2cc(F)cnc2c1C(=O)Nc1cncc(F)c1N1CCC(C(=O)N2CCC(N3CCC3)CC2)CC1` [I-G-68, 2-amino-N-(4-(4-(4-(azetidin-1-yl)piperidine-1-carbonyl)piperidin-1-yl)-5-fluoropyridin-3-yl)-6-fluoropyrazolo[1,5-a]pyrimidine-3-carboxamide] the “Cisplatin Sensitization Assay” value was “+++ (Compounds with a Cisplatin sensitization value of <0.02 μM are marked with “+++.”)”.

For `Nc1nn2cc(F)cnc2c1C(=O)Nc1cncc(Cl)c1N1CCC(C(=O)N2CCN3CCC2C3)CC1` (centres unmarked) [I-G-69, N-(4-(4-(1,4-diazabicyclo[3.2.1]octane-4-carbonyl)piperidin-1-yl)-5-chloropyridin-3-yl)-2-amino-6-fluoropyrazolo[1,5-a]pyrimidine-3-carboxamide], the “Cisplatin Sensitization Assay” value was “+++ (Compounds with a Cisplatin sensitization value of <0.02 μM are marked with “+++.”)”.

With `Nc1nn2cc(F)cnc2c1C(=O)Nc1cncc(F)c1N1CCC(C(=O)N2CC(F)(F)C2)CC1` [I-G-73, 2-amino-N-(4-(4-(3,3-difluoroazetidine-1-carbonyl)piperidin-1-yl)-5-fluoropyridin-3-yl)-6-fluoropyrazolo[1,5-a]pyrimidine-3-carboxamide] the “Cisplatin Sensitization Assay” value was “+++ (Compounds with a Cisplatin sensitization value of <0.02 μM are marked with “+++.”)”.

Reference: patent US10787452B2 (Vertex Pharmaceuticals Incorporated, priority 2012, dated 2020)
